{"source": "patent US20190365907A1", "about": "“ZWITTERIONIC POLYMER-INSULIN COMPOSITIONS AND RELATED METHODS” (Wayne State University, priority 2017, published 2019)", "key": {"[1]": {"system": "streptozotocin (STZ) induced diabetic mice", "assay": "Blood glucose lowering after tail vein injection in STZ-induced diabetic mice", "type": "in vivo", "experimental": "The mice were fasted during the glucose testing period.\nThe injection dose for the three samples were readily kept the same at 10 nmol/Kg insulin or its conjugate (for native insulin dose, 10 nmol/kg=1.5 IU/kg), by accurately controlling the feeding molar content of insulin for the conjugation reaction.\nThe in vivo bioavailability of insulin samples was evaluated by quantifying the area above the curve (AAC) of relative intensity of blood glucose concentration in FIG. 4B."}, "[2]": {"assay": "Circular dichroism secondary structure of insulin samples", "type": "physicochemical", "details": "far-UV CD, 0.2 mg/mL in 0.2 M pH 8.2 PBS buffer, CDSSTR analysis", "experimental": "CD spectra were collected by using a Chirascan spectrophotometer from Applied Photophysics at 25° C. Insulin samples were dissolved in 0.2 M PBS buffer at 0.2 mg/ml. The […] CD spectra were measured from 200 to 250 nm with the light-path length of 1 mm. The scanning speed of CD spectra measurement was set at 200 nm/min. Each spectrum was the average of three scans to increase the signal-to-noise ratio of the measurements. The secondary structure proportions for insulin and its conjugates were analyzed using CDSSTR software.\nThe effect of polymer conjugation on the structure change of insulin was evaluated. Far-ultraviolet CD spectra were collected to quantify the effect of the zwitterionic polymer conjugation on insulin's secondary structure."}, "[3]": {"assay": "Hydrodynamic size by dynamic light scattering (DLS)", "type": "physicochemical", "details": "pH 8.4 0.2M HEPES buffer, 25° C.; average±standard deviation, n=3", "experimental": "The hydrodynamic sizes of the insulin and its conjugate samples were collected by a DLS method using a Malvern Nano-ZS Zetasizer at 25° C.\nThe hydrodynamic size of PCB-conjugated insulin was measured by a dynamic light scattering (DLS) method by using a Malvern Nano-ZS Zetasizer."}, "insulin receptor": {"molecular_target": "T1, insulin receptor (Cricetulus griseus, UniProt A0A8C2MAM4)", "T1 construct": "host or cells: CHO-M1 cells", "T1 sequence (A0A8C2MAM4 28-1372)": "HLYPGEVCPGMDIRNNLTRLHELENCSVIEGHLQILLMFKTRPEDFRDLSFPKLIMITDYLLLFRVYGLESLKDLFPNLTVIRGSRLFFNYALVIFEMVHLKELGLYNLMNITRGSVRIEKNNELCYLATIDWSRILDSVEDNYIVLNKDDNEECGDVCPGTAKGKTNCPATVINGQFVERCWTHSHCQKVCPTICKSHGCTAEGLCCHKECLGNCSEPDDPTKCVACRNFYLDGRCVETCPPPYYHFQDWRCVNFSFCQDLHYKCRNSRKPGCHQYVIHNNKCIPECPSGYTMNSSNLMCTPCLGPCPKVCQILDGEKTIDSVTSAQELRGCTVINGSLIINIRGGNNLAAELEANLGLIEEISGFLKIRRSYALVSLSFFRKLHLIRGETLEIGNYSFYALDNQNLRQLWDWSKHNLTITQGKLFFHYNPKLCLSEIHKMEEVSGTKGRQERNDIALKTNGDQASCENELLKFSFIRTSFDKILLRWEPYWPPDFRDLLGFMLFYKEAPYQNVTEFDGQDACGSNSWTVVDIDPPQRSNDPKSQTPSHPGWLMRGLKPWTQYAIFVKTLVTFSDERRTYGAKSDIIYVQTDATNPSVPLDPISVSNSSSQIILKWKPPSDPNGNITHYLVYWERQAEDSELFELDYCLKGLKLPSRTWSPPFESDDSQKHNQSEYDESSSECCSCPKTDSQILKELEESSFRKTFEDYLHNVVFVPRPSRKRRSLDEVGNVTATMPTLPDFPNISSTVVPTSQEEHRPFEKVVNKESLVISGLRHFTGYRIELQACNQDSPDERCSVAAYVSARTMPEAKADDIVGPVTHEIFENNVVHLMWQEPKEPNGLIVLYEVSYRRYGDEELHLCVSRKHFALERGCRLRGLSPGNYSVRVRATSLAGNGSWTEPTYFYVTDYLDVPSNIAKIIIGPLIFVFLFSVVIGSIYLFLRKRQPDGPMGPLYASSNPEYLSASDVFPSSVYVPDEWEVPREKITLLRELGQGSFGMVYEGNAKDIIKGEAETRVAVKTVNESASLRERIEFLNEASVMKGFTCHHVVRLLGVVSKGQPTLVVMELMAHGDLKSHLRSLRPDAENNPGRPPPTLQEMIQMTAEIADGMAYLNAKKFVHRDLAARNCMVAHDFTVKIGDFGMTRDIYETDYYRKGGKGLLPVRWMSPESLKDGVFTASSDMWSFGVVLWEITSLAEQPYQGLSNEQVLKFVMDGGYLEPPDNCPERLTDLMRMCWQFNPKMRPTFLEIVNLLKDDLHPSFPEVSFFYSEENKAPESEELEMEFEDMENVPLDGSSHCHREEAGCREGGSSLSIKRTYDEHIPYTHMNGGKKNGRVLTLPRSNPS", "assay": "In vitro bioactivity assay of insulin (phosphorylated AKT at Ser473 in CHO-M 1 cells)", "type": "cell-based", "details": "10 μg/mL, 45 minutes, FIG. 4C", "experimental": "About 25,000 CHO-M 1 cells/well (ATCC) were seeded in a 96-well tissue culture treated plate and incubate for 24 h before being cultured in serum-free medium. […] Then cells were lysed and a commercially available kit (Cisbio) was used to assay phosphorylated AKT at Ser473. The fluorescence emission at 665 and 620 nm was measured on a HTRF reader (BioTek, USA).\nThe relative activity was presented as the percentage relative to native insulin±standard deviation (n=6) * p<0.05, ** p<0.01, ns=not significant."}, "[4]": {"details": "non-purified (rough) products, 10 nmol/Kg intravenous, FIG. 4A"}, "[5]": {"details": "purified conjugates, 10 nmol/kg intravenous, FIG. 4B"}}}
{"substance": "PCB-insulin: Conjugate of human recombinant insulin with NHS ester terminated zwitterionic carboxybetaine polymer (~5000 Da), one chain per insulin, prioritized at LysB29", "values": [{"measurement": "blood glucose lowering ability compared with native insulin", "setting": "[1]; [4]", "value": "significantly higher blood glucose lowering ability than native insulin"}, {"measurement": "blood glucose lowering ability compared with native insulin", "setting": "[1]; [5]", "value": "even higher blood glucose lowering ability than native insulin"}]}
{"substance": "PEG-insulin: Comparison conjugate of human recombinant insulin with commercially available PEG-NHS (5000 Da)", "values": [{"measurement": "Random coil (secondary structure proportion)", "setting": "[2]", "value": 30, "unit": "%"}, {"measurement": "blood glucose lowering ability compared with native insulin", "setting": "[1]; [4]", "value": "similar"}, {"measurement": "blood glucose lowering ability compared with native insulin", "setting": "[1]; [5]", "value": "did not show any better glucose lowering effect than native insulin"}, {"measurement": "hydrodynamic size", "setting": "[3]", "value": "4.2±0.7", "unit": "nm"}, {"measurement": "activity lost in vitro compared with native insulin", "setting": "insulin receptor", "value": "about 27%"}]}
